The target in this test is T1, full-length beta-Catenin (Uniprot ID P35222) (Homo sapiens, UniProt P35222).
T1 construct: 10 nM full-length beta-Catenin (Uniprot ID P35222)
T1 sequence (P35222 1-781): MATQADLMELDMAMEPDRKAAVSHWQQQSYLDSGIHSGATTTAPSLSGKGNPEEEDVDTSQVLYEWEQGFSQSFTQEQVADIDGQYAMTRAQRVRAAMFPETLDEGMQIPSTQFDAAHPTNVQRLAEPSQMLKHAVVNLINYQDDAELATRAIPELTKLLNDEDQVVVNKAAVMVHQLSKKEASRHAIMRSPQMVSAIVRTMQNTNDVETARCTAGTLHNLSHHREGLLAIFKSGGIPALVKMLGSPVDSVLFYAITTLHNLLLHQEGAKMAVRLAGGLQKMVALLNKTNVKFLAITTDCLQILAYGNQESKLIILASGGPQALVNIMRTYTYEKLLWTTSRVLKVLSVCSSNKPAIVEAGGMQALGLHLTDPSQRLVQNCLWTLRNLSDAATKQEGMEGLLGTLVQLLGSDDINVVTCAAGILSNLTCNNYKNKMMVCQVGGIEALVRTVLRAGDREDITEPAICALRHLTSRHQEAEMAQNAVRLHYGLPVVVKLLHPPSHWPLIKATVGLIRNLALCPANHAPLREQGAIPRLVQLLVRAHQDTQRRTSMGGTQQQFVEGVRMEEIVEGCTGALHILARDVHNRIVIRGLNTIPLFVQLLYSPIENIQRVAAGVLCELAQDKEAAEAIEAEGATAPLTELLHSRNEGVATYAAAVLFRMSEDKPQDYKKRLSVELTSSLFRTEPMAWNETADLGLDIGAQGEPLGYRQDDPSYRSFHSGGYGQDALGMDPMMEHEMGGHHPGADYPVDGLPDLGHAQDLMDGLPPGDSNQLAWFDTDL
As to the kind of experiment: Fluorescence polarization IC50 (beta-catenin / 5FAM-TCF4 10-53 competition). In kind it is binding. Particulars: fluorescence polarization; read-out: beta-Catenin FP IC50. For orientation: In fluorescence polarisation assays a small probe gives low polarisation when free and higher when bound to something large.

Take `CC(=O)N1CCC[C@]12CC=CCCCC1(CCCC=CCOC(=O)N(C)CC[C@@](C)(C(=O)N[C@@H](Cc3ccsc3)C(=O)N[C@@H](Cc3csc4ccccc34)C(=O)N[C@@H](CCC(N)=O)C(N)=O)NC(=O)[C@H](CC(N)=O)NC(=O)[C@H](Cc3ccccc3)NC(=O)[C@H](C)NC(=O)[C@H](C)NC(=O)[C@H](CC(=O)O)NC(=O)[C@H](CC(=O)O)NC1=O)NC(=O)[C@H](CC(C)(C)C)NC(=O)[C@H](CC(=O)O)NC2=O` (stereo partly drawn) [I-1829, Ac-PL3-Asp-Npg-B5-Asp-Asp-Ala-Ala-Phe-Asn-SdN-3Thi-BztA-Gln-NH2]: the IC50 is 668 nM.
For `CC(=O)N1CCC[C@]12CC=CCCCC1(CCCC=CCOC(=O)N(C)CC[C@@](C)(C(=O)N[C@@H](Cc3ccsc3)C(=O)N[C@@H](Cc3csc4ccccc34)C(=O)N[C@@H](CCC(N)=O)C(N)=O)NC(=O)[C@H](CC(C)C)NC(=O)[C@H](Cc3ccccc3)NC(=O)[C@H](C)NC(=O)[C@H](C)NC(=O)[C@H](CC(=O)O)NC(=O)[C@H](CC(=O)O)NC1=O)NC(=O)[C@H](CC(C)(C)C)NC(=O)[C@H](CC(=O)O)NC2=O` (stereo partly drawn) [I-1830, Ac-PL3-Asp-Npg-B5-Asp-Asp-Ala-Ala-Phe-Leu-SdN-3Thi-BztA-Gln-NH2], the IC50 came to 313 nM.
The same measure for `CC(=O)N1CCC[C@]12CCCCCCC1(CCCCCCOC(=O)N3CC(C(=O)N[C@@H](Cc4ccsc4)C(=O)N[C@@H](Cc4csc5ccccc45)C(=O)N[C@@H](CCC(N)=O)C(N)=O)(C3)NC(=O)[C@H](CC(N)=O)NC(=O)[C@H](Cc3ccccc3)NC(=O)[C@H](C)NC(=O)[C@H](C)NC(=O)[C@H](CC(=O)O)NC(=O)[C@H](CC(=O)O)NC1=O)NC(=O)[C@H](CC(C)(C)C)NC(=O)[C@H](CC(=O)O)NC2=O` (stereo partly drawn) [I-1831, Ac-PL3-Asp-Npg-B5-Asp-Asp-Ala-Ala-Phe-Asn-Az-3Thi-BztA-Gln-NH2]: 1630 nM; for `CC(=O)N1CCC[C@]12CCCCCCC1(CCCCCCOC(=O)N3CC(C(=O)N[C@@H](Cc4ccsc4)C(=O)N[C@@H](Cc4csc5ccccc45)C(=O)N[C@@H](CCC(N)=O)C(N)=O)(C3)NC(=O)[C@H](CC(C)C)NC(=O)[C@H](Cc3ccccc3)NC(=O)[C@H](C)NC(=O)[C@H](C)NC(=O)[C@H](CC(=O)O)NC(=O)[C@H](CC(=O)O)NC1=O)NC(=O)[C@H](CC(C)(C)C)NC(=O)[C@H](CC(=O)O)NC2=O` (stereo partly drawn) [I-1832, Ac-PL3-Asp-Npg-B5-Asp-Asp-Ala-Ala-Phe-Leu-Az-3Thi-BztA-Gln-NH2]: 1110 nM.
With `CC(=O)N1CCC[C@]12CC=CCCCC1(CCCC=CCCCOC(=O)N3CC[C@@](C(=O)N[C@@H](Cc4ccsc4)C(=O)N[C@@H](Cc4csc5ccccc45)C(=O)N[C@@H](CCC(N)=O)C(N)=O)(C3)NC(=O)[C@H](CC(C)C)NC(=O)[C@H](Cc3ccccc3)NC(=O)[C@H](C)NC(=O)[C@H](C)NC(=O)[C@H](CCN(CC(=O)O)CC(=O)O)NC(=O)[C@H](CC(=O)O)NC1=O)NC(=O)[C@H](CC(C)(C)C)NC(=O)[C@H](CC(=O)O)NC2=O` (stereo partly drawn) [I-1836, Ac-PL3-Asp-Npg-B5-Asp-[CH2CO2H]GAbu-Ala-Ala-Phe-Leu-PyrS2-3Thi-BztA-Gln-NH2], the IC50 amounted to 24 nM.
With `CC(=O)N1CCC[C@]12CC=CCCCC1(CCCC=CCCCOC(=O)N3CC[C@@](C(=O)N[C@@H](Cc4ccsc4)C(=O)N[C@@H](Cc4csc5ccccc45)C(=O)N[C@@H](CCC(N)=O)C(N)=O)(C3)NC(=O)[C@H](CC(C)C)NC(=O)[C@H](Cc3ccccc3)NC(=O)[C@H](C)NC(=O)[C@H](C)NC(=O)[C@H](CCN(CCN3CCOCC3)CC(=O)O)NC(=O)[C@H](CC(=O)O)NC1=O)NC(=O)[C@H](CC(C)(C)C)NC(=O)[C@H](CC(=O)O)NC2=O` (stereo partly drawn) [I-1842, Ac-PL3-Asp-Npg-B5-Asp-[MorphEt]GAbu-Ala-Ala-Phe-Leu-PyrS2-3Thi-BztA-Gln-NH2], the IC50 was found to be 81 nM.
For `CC(=O)N1CCC[C@]12CC=CCCCC1(CCCC=CCCCOC(=O)N3CC[C@@](C(=O)N[C@@H](Cc4ccsc4)C(=O)N[C@@H](Cc4csc5ccccc45)C(=O)N[C@@H](CCC(N)=O)C(N)=O)(C3)NC(=O)[C@H](CC(C)C)NC(=O)[C@H](Cc3ccccc3)NC(=O)[C@H](C)NC(=O)[C@H](C)NC(=O)[C@H](CNc3ccc([N+](=O)[O-])c(C(=O)O)c3)NC(=O)[C@H](CC(=O)O)NC1=O)NC(=O)[C@H](CC(C)(C)C)NC(=O)[C@H](CC(=O)O)NC2=O` (stereo partly drawn) [I-1844, Ac-PL3-Asp-Npg-B5-Asp-[3COOH4NO2Ph]Dap-Ala-Ala-Phe-Leu-PyrS2-3Thi-BztA-Gln-NH2], the IC50 is 227 nM.
Regarding `CC(=O)N1CCC[C@]12CC=CCCCC1(CCCC=CCCCOC(=O)N3CC[C@@](C(=O)N[C@@H](Cc4ccsc4)C(=O)N[C@@H](Cc4csc5ccccc45)C(=O)N[C@@H](CCC(N)=O)C(N)=O)(C3)NC(=O)[C@H](CC(C)C)NC(=O)[C@H](Cn3cc(CN(C)C)nn3)NC(=O)[C@H](C)NC(=O)[C@H](C)NC(=O)[C@H](CN(CC(=O)O)CC(F)(F)F)NC(=O)[C@H](CC(=O)O)NC1=O)NC(=O)[C@H](CC(C)(C)C)NC(=O)[C@H](CC(=O)O)NC2=O` (stereo partly drawn) [I-1855, Ac-PL3-Asp-Npg-B5-Asp-TfeGA-Ala-Ala-[CH2NMe2]TriAzDap-Leu-PyrS2-3Thi-BztA-Gln-NH2], the IC50 is 849 nM.
In the case of `CC(=O)N1CCC[C@]12CC=CCCCC1(CCCC=CCCCOC(=O)N3CC[C@@](C(=O)N[C@@H](Cc4ccsc4)C(=O)N[C@@H](Cc4csc5ccccc45)C(=O)N[C@@H](CCC(N)=O)C(N)=O)(C3)NC(=O)[C@H](CC(C)C)NC(=O)[C@H](Cn3cc(CN4CCNCC4)nn3)NC(=O)[C@H](C)NC(=O)[C@H](C)NC(=O)[C@H](CN(CC(=O)O)CC(F)(F)F)NC(=O)[C@H](CC(=O)O)NC1=O)NC(=O)[C@H](CC(C)(C)C)NC(=O)[C@H](CC(=O)O)NC2=O` (stereo partly drawn) [I-1857, Ac-PL3-Asp-Npg-B5-Asp-TfeGA-Ala-Ala-[CH2Ppz]TriAzDap-Leu-PyrS2-3Thi-BztA-Gln-NH2], the IC50 is 4030 nM.
For `CC(=O)N1CCC[C@]12CC=CCCCC1(CCCC=CCCCOC(=O)N3CC[C@@](C(=O)N[C@@H](Cc4ccsc4)C(=O)N[C@@H](Cc4csc5ccccc45)C(=O)N[C@@H](CCC(N)=O)C(N)=O)(C3)NC(=O)[C@H](CC(C)C)NC(=O)[C@H](Cn3cc(CN4CCOCC4)nn3)NC(=O)[C@H](C)NC(=O)[C@H](C)NC(=O)[C@H](CN(CC(=O)O)CC(F)(F)F)NC(=O)[C@H](CC(=O)O)NC1=O)NC(=O)[C@H](CC(C)(C)C)NC(=O)[C@H](CC(=O)O)NC2=O` (stereo partly drawn) [I-1858, Ac-PL3-Asp-Npg-B5-Asp-TfeGA-Ala-Ala-[MorphCH2]TriAzDap-Leu-PyrS2-3Thi-BztA-Gln-NH2], the IC50 is 1110 nM.
On to `CC(=O)N1CCC[C@]12CC=CCCCC1(CCCC=CCCCOC(=O)N3CC[C@@](C(=O)N[C@@H](Cc4ccsc4)C(=O)N[C@@H](Cc4csc5ccccc45)C(=O)N[C@@H](CCC(N)=O)C(N)=O)(C3)NC(=O)[C@H](CC(C)C)NC(=O)[C@H](Cn3cc(CN4CCOCC4)nn3)NC(=O)[C@H](C)NC(=O)[C@H](C)NC(=O)[C@H](CN(CC(=O)O)CC(F)(F)F)NC(=O)[C@H](CC(=O)O)NC1=O)NC(=O)[C@H](CC(C)(C)C)NC(=O)[C@H](CC(=O)O)NC2=O` (stereo partly drawn) [I-1859, Ac-PL3-Asp-Npg-B5-Asp-TfeGA-Ala-Ala-[MorphCH2]TriAzDap-Leu-PyrS2-3Thi-BztA-Gln-NH2], for which the IC50 amounted to 1110 nM.
Turning to `CC(=O)N1CCC[C@]12CC=CCCCC1(CCCC=CCCCOC(=O)N3CC[C@@](C(=O)N[C@@H](Cc4ccsc4)C(=O)N[C@@H](Cc4csc5ccccc45)C(=O)N[C@@H](CCC(N)=O)C(N)=O)(C3)NC(=O)[C@H](CC(C)C)NC(=O)[C@H](Cn3cc(CN4CCS(=O)(=O)CC4)nn3)NC(=O)[C@H](C)NC(=O)[C@H](C)NC(=O)[C@H](CN(CC(=O)O)CC(F)(F)F)NC(=O)[C@H](CC(=O)O)NC1=O)NC(=O)[C@H](CC(C)(C)C)NC(=O)[C@H](CC(=O)O)NC2=O` (stereo partly drawn) [I-1860, Ac-PL3-Asp-Npg-B5-Asp-TfeGA-Ala-Ala-[SO2MorphCH2]TriAzDap-Leu-PyrS2-3Thi-BztA-Gln-NH2], the IC50 came out at 512 nM.
Under `CC(=O)N1CCC[C@]12CC=CCCCC1(CCCC=CCCCOC(=O)N3CC[C@@](C(=O)N[C@@H](Cc4ccsc4)C(=O)N[C@@H](Cc4csc5ccccc45)C(=O)N[C@@H](CCC(N)=O)C(N)=O)(C3)NC(=O)[C@H](Cn3cc(CN4CCNCC4)nn3)NC(=O)[C@H](Cc3ccccc3)NC(=O)[C@H](C)NC(=O)[C@H](C)NC(=O)[C@H](CN(CC(=O)O)CC(F)(F)F)NC(=O)[C@H](CC(=O)O)NC1=O)NC(=O)[C@H](CC(C)(C)C)NC(=O)[C@H](CC(=O)O)NC2=O` (stereo partly drawn) [I-1863, Ac-PL3-Asp-Npg-B5-Asp-TfeGA-Ala-Ala-Phe-[CH2Ppz]TriAzDap-PyrS2-3Thi-BztA-Gln-NH2] stands 10 nM; under `CC(=O)N1CCC[C@]12CC=CCCCC1(CCCC=CCCCOC(=O)N3CC[C@@](C(=O)N[C@@H](Cc4ccsc4)C(=O)N[C@@H](Cc4csc5ccccc45)C(=O)N[C@@H](CCC(N)=O)C(N)=O)(C3)NC(=O)[C@H](Cn3cc(CN4CCS(=O)(=O)CC4)nn3)NC(=O)[C@H](Cc3ccccc3)NC(=O)[C@H](C)NC(=O)[C@H](C)NC(=O)[C@H](CN(CC(=O)O)CC(F)(F)F)NC(=O)[C@H](CC(=O)O)NC1=O)NC(=O)[C@H](CC(C)(C)C)NC(=O)[C@H](CC(=O)O)NC2=O` (stereo partly drawn) [I-1868, Ac-PL3-Asp-Npg-B5-Asp-TfeGA-Ala-Ala-Phe-[SO2MorphCH2]TriAzDap-PyrS2-3Thi-BztA-Gln-NH2], 12 nM.

One may read the IC50 as the concentration at which inhibition is half-maximal.

The values above are taken from patent US20240116985A1, “STAPLED PEPTIDES AND METHODS THEREOF” (priority 2020, published 2024).
